Source: patent US20230095618A1, “OIL-IN-WATER EMULSION COMPRISING A SOLID LIPID MATERIAL” (priority 2020, published 2023)

Test system: yellow fever mosquito, Aedes aegypti Rockefeller strain
Test: Repulsive effect on mosquitoes: number of landings on a treated warm glass plate in a cage
Format: in vivo
Details: reference actives diluted at 12.5% in ethanol; for number of mosquito landings: glass plate at 34° C., cage with 30 unfed A. aegypti females
Description: Controlling efficacy was tested against the yellow fever mosquito, Aedes aegypti Rockefeller strain. […] Observations of controlling efficacy were made on host-seeking females of uniform age, 5 to 12 days post-eclosion from pupae. Tested hungry females had access to 10% sugar solution but were not blood-fed. The testing protocol was adapted from the method described in Krober et al. (2010; doi: 10.2987/10-6044.1). A controlled amount […] of stimulus was deposited in the center of a sandblasted glass plate (60 mm diam) and maintained at 34° C. The glass plate was then placed in a polycarbonate cage (200×260×180 mm) containing 30 A. aegypti unfed female mosquitoes. The number of landings of the mosquitoes as a function of time was monitored using a camera and allowed to evaluate the repulsive effect of the stimulus. Stimuli tested were water, ethanol or diluted insect repellent active as controls and samples according to example 1. When only water is applied onto the glass surface, the average number of mosquitoes landing is about 63. The reference sample consisting of pure IR3535® diluted at 12.5% in ethanol reduces the number of landing from about 63 landings in the control test to about 12 landings 2 hrs after application (81% reduction), 15 after 4 hrs (−76%) and 30 after 6 hrs (−52%). Emulsion 1 according to example 1 reduces the number of landings from about 63 landings in the control test to about 12 landings 2 hrs after application (81% reduction), 4 after 4 hrs (−93%) and 3 after 6 hrs (−95%). […] Emulsion 2 according to example 1 reduces the number of landings from about 63 landings in the control test to about 8 landings 2 hrs after application (87% reduction), 2 after 4 hrs (−97%) and 4 after 6 hrs (−93%).

| Structure (SMILES) | number of mosquito landings (2 hrs after application) | reduction of the number of landings versus water control (2 hrs after application) [%] | number of mosquito landings (after 4 hrs) [landings] | change of the number of landings versus water control (given as negative %) (after 4 hrs) [%] | number of mosquito landings (after 6 hrs) [landings] | change of the number of landings versus water control (given as negative %) (after 6 hrs) [%] |
| --- | --- | --- | --- | --- | --- | --- |
| CCN(CC)C(=O)c1cccc(C)c1 [DEET, N,N-diethyl-3-methylbenzamide] | about 15 landings | 72 | ~10 | −81 | ~19 | −65 |
| CCCCN(CCC(=O)OCC)C(C)=O [IR3535®, ethyl 3-(acetyl(butyl)amino)propanoate] | about 12 landings | 81 | ~15 | −76 | ~30 | −52 |
